According to PubChem BioAssay (NCI):
Values joined by “and” are separate entries in the source; they are usually repeats but may differ in a detail not shown here. Equal entries are not always repeated.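 Exposure lasted 48 hours, with cells grown in 96-well plates and compounds tested at five concentrations. GI50: concentration for 50% inhibition of growth. TGI marks complete inhibition of growth.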

Assays:
Experiment in all cases: NCI anticancer screen, dose series, 48 h
NCI/ADR-RES ovarian = test system: NCI/ADR-RES ovarian
HS 578T breast = test system: HS 578T breast
BT-549 breast = test system: BT-549 breast

Row | Compound | GI50 (NCI/ADR-RES ovarian) | TGI (NCI/ADR-RES ovarian) | GI50 (HS 578T breast) | TGI (HS 578T breast) | GI50 (BT-549 breast) | TGI (BT-549 breast)
1 | N/C(=N\OC(=O)c1ccccc1)C(C(=O)NOC(=O)c1ccccc1)C1CCCCC1 (stereo unspecified) | 3.79 µM | 16 µM | 2.57 µM | 7.93 µM | 3.98 µM | 15.1 µM
2 | CS(=O)(=O)c1ccc(Cl)c([N+](=O)[O-])c1 | 20.8 µM | 46.9 µM | 26 µM | 89.1 µM | 18.7 µM | 32.8 µM
3 | COc1cc(Nc2ccnc(N3CCN(c4ccnc5cc(Cl)ccc45)CC3)n2)cc(OC)c1 | 1.1 µM | 5.47 µM | 2.59 µM | > 100 µM | – | –
4 | Cc1cc2c(C(C)C)c(O)c(O)c(C=Nc3cc(C(F)(F)F)ccc3Cl)c2c(O)c1-c1c(C)cc2c(C(C)C)c(O)c(O)c(C=Nc3cc(C(F)(F)F)ccc3Cl)c2c1O | – | > 100 µM | – | > 100 µM | – | 77.6 µM
5 | C/C(=N\O)c1ccc(Nc2cc(-n3nnc4ccccc43)nc3ccccc23)cc1 | 5.22 µM | 16.2 µM | 6.29 µM | 20.4 µM | 3.77 µM | 14.8 µM
6 | COc1ccc(Cl)cc1Nc1nc(C(F)(F)F)ccc1C(=O)NN | 2.3 µM | > 22.5 µM | 12.3 µM | > 100 µM | 2.13 µM | > 100 µM
7 | NS(=O)(=O)c1ccc(N2Cc3cc(Cl)ccc3OC3=C2C(=O)N(CC2CCCCC2)C3=O)cc1 | 1.74 µM | 5.05 µM | 2.01 µM | 6.88 µM | 0.546 µM | 1.97 µM
8 | COc1ccc(OC)c(-c2cc(-c3ccccc3)nn2-c2ccc(S(=O)(=O)NC(C)=O)cc2)c1 | 3.38 µM | 11.5 µM | 27.4 µM | 80 µM | 16.2 µM | 38.6 µM
9 | CN1CCCN(CCNc2nccc(-c3c(-c4cccc(O)c4)nc4sccn34)n2)S1(=O)=O | 22.5 µM and 31.1 µM | 75 µM and > 100 µM | 7.08 µM and 3.04 µM | 75 µM and 26 µM | 9.2 µM and 12.3 µM | 58.8 µM and > 78.4 µM
10 | Cn1cc(C2=C(c3cn(C)c4ccc(N)cc34)C(=O)NC2=O)c2ccccc21 | 10.3 µM | > 25 µM | 5.3 µM | > 25 µM | 7.12 µM | > 25 µM
11 | COc1ccc(-c2cc(-c3ccc(Cl)cc3)c(C#N)c(=O)n2CCCCC(=O)Nc2ccccc2N)cc1 | 4.09 µM | > 100 µM | 8.18 µM | 52.4 µM | 4.71 µM | 31.9 µM
12 | Fc1cccc(COc2ccc(Nc3ncnc4sc(-c5ccco5)cc34)cc2Cl)c1 | > 25 µM | > 25 µM | > 25 µM | > 25 µM | > 25 µM | > 25 µM
13 | COC(=O)C1=C(OC(=O)c2ccc(Cl)cc2)C(C(=O)OC)[C@@]2(O)[C@@H](C(=O)OC)C(c3ccccc3C(F)(F)F)C[C@@H]1[C@@H]2C(=O)OC (stereo partly specified) | 3.11 µM | > 100 µM | 3.96 µM | 24.2 µM | 4.16 µM | 63.6 µM
14 | CC(C)n1c(/C=C/[C@@H](O)C[C@@H](O)CC(=O)O)c(-c2ccc(F)cc2)c2ccccc21 | 0.554 µM and 0.845 µM | > 100 µM | 4.29 µM and 4.73 µM | > 100 µM | 5.8 µM and 4.63 µM | > 77.6 µM
15 | S=C(N/N=C/c1cc(Cl)cc(Cl)c1)NC12CC3CC(CC(C3)C1)C2 | 7.2 µM | > 100 µM | 2.16 µM | 7.41 µM | > 100 µM | > 100 µM
16 | CC[C@H](C)[C@H](NC(=O)c1cnccn1)C(=O)N(C)[C@H](C[C@@H](OC(C)=O)c1nc(C(=O)N[C@@H](Cc2ccccc2)C[C@H](C)C(=O)OC)cs1)C(C)C | 2.81 µM | > 33.3 µM | 0.941 µM | 10.6 µM | – | –
17 | COc1cc(/C=C2\CN(C)CC3=C2Nc2nc(SC)[nH]c(=O)c2C3c2cc(OC)c(OC)c(OC)c2)cc(OC)c1OC (stereo unspecified) | 3.6 µM | > 100 µM | 8.88 µM | > 100 µM | 2.98 µM | 8.12 µM
18 | COc1ccc2nc(-c3ccccc3)cc(Nc3cccc(/C(C)=N\O)c3)c2c1 | 6.35 µM | > 100 µM | 9.05 µM | 79.2 µM | 32.8 µM | > 100 µM
19 | O=C(Nc1ccc(OC(F)(F)F)cc1)c1sccc1NCc1ccnc2ccccc12 | 2.81 µM | > 100 µM | 3.39 µM | 26 µM | 6.9 µM | 51.5 µM
20 | Cc1cccc(NC(=O)c2sc3nc4c(cc3c2N)CCCC4)c1C | – | – | 0.351 µM | > 100 µM | 2.51 µM | > 100 µM
21 | CCOC(=O)c1c(NC(=O)c2ccc(C(C)C)cc2)sc2c(CN(C)C)c(O)ccc12 | 1.89 µM | 4.52 µM | 2.01 µM | 4.37 µM | 2.18 µM | 5.35 µM
22 | C[n+]1cc2c3c(ccc2c2ccc4cc5c(cc4c21)OCO5)OCO3 | – | – | 2.11 µM | > 24.6 µM | 0.784 µM | 2.08 µM
